Results: patent US20140335154A1, “METHODS AND FORMULATIONS TO ACHIEVE TUMOR TARGETED DOUBLE STRANDED RNA MEDIATED CELL DEATH” (MULTICELL IMMUNOTHERAPEUTICS, INC., priority 2013, published 2014)
Read-outs that look alike come from different tables or passages of the source.

What was measured:
[1] = test system: THP-1 cells; assay: Cytokine production in THP-1 cells (ELISA / Bio-Plex); format: cell-based, human
Protocol: (§1) Analysis of Cytokines Release: Cells were plated into 96-well plate with the density of 2×10^4 cells/well, cultured and were allowed to become subconfluent. After changing to fresh medium, the cells were treated with 5 bp pA:pU with analogues of 5 bp pA:pU, 70 bp pA:pU, analogues 70 bp pA:pU, or control Poly(A:U) and Poly(I:C) at the final concentration of 100 μg/ml. Cells without treatment were the negative control and cells treated with 1 μg/ml LPS were the positive control. After incubation, the supernatants were collected, centrifuged and then put at −80° C. immediately. Select cytokines, such as IL-6, IL-12(p70), IFN-α2, Tumor Necrosis Factor-α (TNF-α), TNF-related apoptosis-inducing ligand (TRAIL), were analyzed by Bio-Plex Assay kits.
(§2) Experiments carried out in vitro compare low molecular weight dsRNAs (<15 bps) with high molecular weight dsRNAs (>70 bps). Data generated with dsRNA of similar size and chemical composition obtained by fractionation, indicate that low molecular weight dsRNAs (<15 bps) have substantial TNFalpha and cell death inducing properties in human monocytic THP-1 cells. […] The pro-inflammatory effect of low molecular weight dsrnas is evaluated by measuring cytokine production using elisa (r&d systems) in FIG. 3a as well as in FIG. 3b. cell proliferation, death, and apoptosis are measured by Ethidium bromide (EB), PI and YoPro staining (in FIG. 1), Fluorescence-Activated Cell Sorting (FACS) analysis and mtt assay, Annexin V and PI staining analyzed by flow cytometry (in FIGS. 3A, 3B, 4A, 4B, 4C, 5A and 5B).

[2] = test system: human HCC cell line PLC/PRC/5; assay: Cytokine production in HCC cell line PLC/PRC/5; format: cell-based; conditions: for TNFalpha induction: PLC/PRC/5 cancer cells
Protocol: as §1, §2

[3] = test system: human HCC lines Huh7, PLC/PRF/5, HepG2, primary liver cancer cells P7NSG59410 and P31NSG55368; assay: MTT cytotoxicity and anti-proliferative effect on human liver cancer cells (FIGS. 4A, 4B); format: cell-based
Protocol: Analysis of Growth Curve: Cell lines were seeded at different initial densities in the 96-well plate for 7 days. The medium was changed every day. The viability and metabolic rate of cultured cells was determined daily by assaying the reduction of 3-(4,5-dimethyl thiazol-2-yl)-2,5-diphenyl tetrazolium bromide (MTT) to formazan. After incubation period, MTT was added into each well in final concentration of 0.5 mg/ml, and incubated at the same condition for 4 h. Then the formazan was collected and dissolved in 120 ul DMSO. The absorption was measured at 560-562 nm in an ELISA reader with 620 nm as reference wave.
(§3) Analysis of Cytotoxicity and Anti-Proliferative Effect on Cells: Cytotoxicity was measured by MTT assay. Cells were seeded with the density of 5×10^3 cells/well in 96-well plate and incubated for 48 hours in a cell culture incubator, before being treated with compounds. Each compound was dissolved in RNase and DNase free PBS, and diluted to certain concentrations by the same PBS before being added into the cell culture supernatant. The final concentrations of 5 bps pA:pU were 50, 100, 150 and 200 μg/ml, and the gradient of 5 bps pA:pU s analogue was 50, 100, 300, 500 μg/ml. Poly(A:U) and Poly(I:C) were added at the final concentration of 200 μg/ml as controls. Cells without any treatment were the negative control. After incubation for specified times in the cell culture incubator, MTT reagent was added to the cells for the assay as described above.
as §2, with “bps).” for “bps). Data generated with dsRNA of similar size and chemical composition obtained by fractionation, indicate that low molecular weight dsRNAs (<15 bps) have substantial TNFalpha and cell death inducing properties in human monocytic THP-1 cells.”

[4] = test system: mouse liver cancerous cell line BNL 1ME A.7R.1; assay: MTT cytotoxicity on mouse liver cancerous cell line (FIG. 4B); format: cell-based; conditions: dose-effect
Protocol: as §3

[5] = test system: THP-1 cells; assay: MTT cytotoxicity on THP-1 cells (FIG. 4C); format: cell-based, human; conditions: THP-1, dose-effect
Protocol: as §3, with “After incubation for specified times in the cell culture incubator, MTT reagent was added to the cells for the assay as described above.” left out
as §2, with “bps).” for “bps). Data generated with dsRNA of similar size and chemical composition obtained by fractionation, indicate that low molecular weight dsRNAs (<15 bps) have substantial TNFalpha and cell death inducing properties in human monocytic THP-1 cells.”

[6] = test system: THLE2 cells; assay: MTT cytotoxicity on THLE2 cells emulating normal human liver cells (FIG. 4C); format: cell-based
Protocol: as §3

[7] = test system: human primary fibroblasts; assay: MTT cytotoxicity on human primary fibroblasts (FIG. 4C); format: cell-based
Protocol: as §3

[8] = test system: human HCC cell line PLC/PRC/5 and human HCC cell line Huh7; assay: Cell apoptosis/necrosis, Annexin V and PI flow cytometry (FIG. 5A); format: cell-based; conditions: for cell death: PLC/PRC/5 and Huh7, 200 μg/ml
Protocol: (§4) Analysis of Cell Apoptosis/Necrosis: Cells were plated into 24-well plates with the density of 1×10^5 cells/well, and cultured for 48 hours before treatments. The 5 bp polyA:polyU and its analogue, control Poly(A:U) and Poly(I:C) were added at the final concentration of 200 μg/ml into the cell culture supernatants. Cells without treatment were the negative control and the cells treated with 1 μg/ml Lipopolysaccharide (LPS) were the positive control. After incubation for specified time, the cells were harvested and washed with ice-cold PBS, resuspended in 100 μl AnnexinV binding buffer at a concentration of 1×10^5 cells/100 μl and incubated with 2 μl AnnexinV-FITC for 15 minutes at room temperature in the dark. Samples were washed with binding buffer and resuspended again in 100 μl same buffer. After adding 5 μl Propidium Iodide (PI), the samples were diluted with binding buffer and analyzed by flow cytometry (BD Biosciences). Apoptotic cells were identified as an AnnexinV-FITC-positive/PI-negative population.
as §2

[9] = test system: human HCC cell line HepG2 and THP-1 cells; assay: Cell apoptosis/necrosis, Annexin V and PI flow cytometry (FIG. 5B); format: cell-based; conditions: for cell death: HepG2 and THP-1, 200 μg/ml
Protocol: as §4, §2

[10] = test system: cell line emulating normal hepatocytes; assay: TNF-alpha production in a cell line emulating normal hepatocytes; format: cell-based, human
Protocol: as §1

[11] = test system: human liver cancer cell lines Huh7 and HepG2; assay: MTT assay of Lipofectamine formulated vs unformulated pA:pU (FIG. 6); format: cell-based; conditions: Huh7 and HepG2, 24 hour treatment
Protocol: In one embodiment, 5 bp dsRNAs are formulated using Lipofectamine 2000 to form lipid-based nanoparticles. One exemplary method follows the steps of: 1) in a microfuge tube 1.5 ul of Lipofectamine was diluted to a final volume of 23.5 ul using the appropriate media (per cell type); 2) 25 ul of the appropriate 5 bp dsRNAs analog dilution (to achieve the desired final per well concentration) was added to the diluted Lipofectamine and the mixture was incubated at Room Temperature (RT) for 5 minutes to form lipo-complexes; 3) 250 ul of the appropriate media was added to achieve a final volume of 300 ul; 4) 100 ul of the mixture from step 3 was added to each replicate and the cells was incubated for 24 hours.
Huh7 and HepG2 Cells were plated in a 96 well plate at a density of 2500 cells per well. Cells were incubated for 24 hours. After 24 hours of incubation, the medium was removed and cells were treated with various formulations of 5 bp pA:pU in triplicate in their respective culture mediums with […] 10% FBS. Untreated cells and Dox (10 uM) were used as controls. Cells were incubated for an additional 24 hours. After the 24 hour drug treatment, the medium was removed. Fresh culture medium will be added and the MTT assay was performed using the Life Technologies Vybrant MTT kit. […] The plate was read at 570 nm.

[12] = test system: THP-1, PLC/PRC/5, Huh7 and HepG2 cells; assay: Cytotoxicity, cell death and apoptosis of higher molecular weight dsRNA and controls (FIGS. 3A, 3B, 5A and 5B); format: cell-based
Protocol: as §3
Analysis of Cell Apoptosis/Necrosis: Cells were plated into 24-well plates with the density of 1×10^5 cells/well, and cultured for 48 hours before treatments. The 5 bp polyA:polyU and its analogue, control Poly(A:U) and Poly(I:C) were added at the final concentration of 200 μg/ml into the cell culture supernatants. Cells without treatment were the negative control and the cells treated with 1 μg/ml Lipopolysaccharide (LPS) were the positive control. […] After adding 5 μl Propidium Iodide (PI), the samples were diluted with binding buffer and analyzed by flow cytometry (BD Biosciences). […]
as §2, with “bps).” for “bps). Data generated with dsRNA of similar size and chemical composition obtained by fractionation, indicate that low molecular weight dsRNAs (<15 bps) have substantial TNFalpha and cell death inducing properties in human monocytic THP-1 cells.”

[13] = test system: PLC/PRC/5 and THP-1 cells; assay: TNFalpha and IL-6 induction by higher molecular weight dsRNA and controls (FIGS. 3A, 3B); format: cell-based, human
Protocol: as §1
as §2, with “bps).” for “bps). Data generated with dsRNA of similar size and chemical composition obtained by fractionation, indicate that low molecular weight dsRNAs (<15 bps) have substantial TNFalpha and cell death inducing properties in human monocytic THP-1 cells.”

[14] = Huh7, PLC/PRF/5, HepG2, P7NSG59410, P31NSG55368

5 base pairs polyadenylic-polyuridylic acid [5 bps pA:pU]
IL-6 induction ([1]; THP-1 cells): substantially induced | TNFalpha induction ([1]; THP-1 cells): substantially induced | TNFalpha induction [2]: substantially induced | IL-6 induction ([2]; PLC/PRC/5 cells): substantially induced | cell growth inhibition and death inducing properties [3, 14]: cell growth inhibition and death inducing properties | cell growth inhibition and death inducing properties [4]: cell growth inhibition and death inducing properties | cell growth inhibition and death inducing properties ([5]; listed as low molecular weight dsRNA (5 bps)): anti-proliferative, pro-death effect | cell growth inhibition and death inducing properties ([5]; listed as polyA:polyU of 5 bps): cell growth inhibition and death inducing properties | cytotoxicity on cells emulating normal human liver cells [6]: only a modest effect | cytotoxicity on cells emulating normal human liver cells ([6]; listed as 5 bp polyA:polyU): more refractory | cytotoxicity on cells emulating normal human liver cells ([6]; listed as low molecular weight dsRNA of 5 bps): more attenuated cytotoxicity profile | cytotoxic or anti-proliferative effect on fibroblasts [7]: cytotoxic or anti-proliferative effect | cytotoxic or anti-proliferative effect on fibroblasts ([7]; listed as 5 bp polyA:polyU): sensitive | cell death [8]: induces cell death | cell death [9]: induces cell death | TNF-alpha production [10]: blunted | biological activity in MTT assay [11]: more biologically active than 15 bps | primary mechanism of cytotoxicity [12]: cytolysis, with a minimal apoptosis component

polyinosinic:polycytidylic acid [pI:pC, reference compound]
cytotoxicity or anti-proliferative effect ([8]; PLC/PRC/5 and Huh7): no cytotoxicity or anti-proliferative effect | cell death [8]: minimal cell death or apoptosis | cytotoxicity or anti-proliferative effect ([9]; HepG2 and THP-1): no cytotoxicity or anti-proliferative effect | cell death [9]: minimal cell death or apoptosis | cell death or apoptosis ([12]; FIGS. 3A, 3B, 5A and 5B): minimal cell death or apoptosis | cytotoxicity or anti-proliferative effect ([12]; FIGS. 3A, 3B, 5A and 5B): no cytotoxicity or anti-proliferative effect | IL-6 inducing capabilities [13]: negligible | TNFalpha inducing capabilities [13]: negligible

2O′-methyl analogue of 5 base pairs polyA:polyU
cytokine production by monocytes ([1]; relative to native 5 bps pA:pU): attenuated | TNFalpha induction [2]: elevated | cell growth inhibition and death inducing properties [3, 14]: significantly attenuated | cell growth inhibition and death inducing properties ([3]; Huh7, PLC/PRF/5, HepG2, P7NSG59410, P31NSG55368, listed as 2O′-methyl analogue): less potent | cell growth inhibition and death inducing properties [4]: attenuated cytotstatic/cytotoxic profile | cell death [8]: attenuated cytotstatic/cytotoxic profile | cell death [9]: attenuated cytotstatic/cytotoxic profile
